According to patent publication US20130059096A1, “METHODS AND COATINGS FOR TREATING BIOFILMS” (President and Fellows of Harvard College, priority 2010, published 2013):

Columns and labels:
Bacillus subtilis [1] = test: Disruption of existing 3 day-old pellicles; assay type: cell-based; conditions: 3 μM added to 3 day-old cultures, further 8 hours
[2] = system: Pseudomonas aeruginosa PA14; test: Biofilm formation on polystyrene, crystal violet staining; assay type: cell-based
Protocol: Crystal violet staining Crystal violet staining was done as described previously (O'Toole et al., Mol. Microbiol. 30:295 (1998)) except that the cells were grown in 6-well plates. Wells were stained with 500 μl of 1.0% Crystal-violet dye, rinsed twice with 2 ml double-distilled water and thoroughly dried.
P. aeruginosa strain […] was grown in 12-well polystyrene plates for 48 hours at 30° C. in M63 medium containing glycerol (0.2%) and Casamino acids (20 μg/ml). Additionally added to the wells were no amino acids (untreated), D-tyrosine or the D-amino acid equimolar mixture. Cells bound to the polystyrene were visualized by washing away unbound cells and then staining with crystal violet. Wells were stained with 500 μl of 1.0% Crystal-violet dye, rinsed twice with 2 ml double-distilled water and thoroughly dried.
For experiments reported in Table 1, the organism/strain was S.a. Harvard SCO1, the culture medium was TSB and the cell inoculation was at 2×10^9 cfu. For experiments reported in Table 2, the organism/strain was […], the culture medium was M63 and the cell inoculation was at 1.5×10^9 cfu. Biofilm was visualized using the crystal violet method.

[3] = system: Bacillus subtilis NCIB3610; test: Pellicle (biofilm) formation in liquid biofilm-inducing medium; assay type: cell-based
Protocol: Colony and pellicle formation. For colony formation on solid medium, cells were first grown to exponential growth phase in LB broth and 3 μl of culture were spotted onto solid MSgg medium containing 1.5% Bacto agar. The plates were incubated at 23° C. For pellicle formation in liquid medium, cells were grown to exponential phase and 6 μl of culture were mixed with 6 ml of medium in a 12-well plate (VWR). Plates were incubated at 23° C. Images of colonies and pellicles were taken using a SPOT camera (Diagnostic Instruments, USA).
Preparing conditioned medium. Cells were grown in LB medium to exponential phase. 0.1 ml of culture was added to 100 ml of MSgg medium and grown without shaking in a 500 ml beaker at 23° C. Next, pellicles and conditioned medium was collected by centrifugation at 8,000 rpm for 15 min. The conditioned medium (supernatant fluid) was removed and filtered through a 0.22 μm filter. The filtrates were stored at 4° C. For further purification the biofilm-inhibiting activity was fractionated on a C-18 Sep Pak cartridge using stepwise elution of 0% to 100% methanol with steps of 5%.
To investigate whether mature biofilms produce a factor that triggers biofilm disassembly, the effect of concentrated and partially purified extracts of conditioned medium on pellicle formation when added to fresh medium was assayed. To this end, conditioned medium from an eight-day-old culture was applied to a C18 Sep Pak column. Concentrated eluate from the column was then added to a freshly inoculated culture. […] Further purification of the factor was achieved by eluting the cartridge in step-wise fashion with increasing concentrations of methanol.
Next, the minimum concentration (MIC for Minimal Inhibitory Concentration) needed to prevent biofilm formation was determined.

Bacillus subtilis [4] = test: Cell growth in MSgg medium with shaking; assay type: cell-based; conditions: 3 μM
[5] = system: matrix operons eps and yqxM; test: Expression of PyqxM-lacZ and PepsA-lacZ (β-galactosidase activity); assay type: cell-based, Bacillus subtilis; conditions: 3 μM, strains FC122 and FC5, MSgg, shaking
Protocol: Assays of β-galactosidase activity. Cells were cultured in MSgg medium at 37° C. in a water bath with shaking 1 ml of culture was collected at each time point. β-galactosidase activity was determined as described previously (Chai et al., Mol. Microbiol. 67:254 (2008)).

N[C@H](Cc1ccc(O)cc1)C(=O)O [D-tyrosine]
Breakdown of existing pellicles (FIG. 2C) (Bacillus subtilis [1]): conspicuous breakdown of pellicles | Prevention of biofilm formation (FIG. 10) ([2]; 10 μM, strain P014, polystyrene, 48 hours at 30° C., M63 medium): effective in preventing biofilm formation | inhibition at 0.1 µM ([2]; Pseudomonas aeruginosa, PA14, Table 2, 100 nM, 48 h/30° C., polystyrene, M63, read-out: % Inhibition relative to control (0%, <50%, 50-90%, >90%)): 0% | inhibition at 10 µM ([2]; Pseudomonas aeruginosa, PA14, Table 2, 10 μM, 48 h/30° C., polystyrene, M63, read-out: % Inhibition relative to control (0%, <50%, 50-90%, >90%)): > 90% | inhibition at 100 µM ([2]; Pseudomonas aeruginosa, PA14, Table 2, 100 μM, 48 h/30° C., polystyrene, M63, read-out: % Inhibition relative to control (0%, <50%, 50-90%, >90%)): > 90% | inhibition at 500 µM ([2]; Pseudomonas aeruginosa, PA14, Table 2, 500 μM, 48 h/30° C., polystyrene, M63, read-out: % Inhibition relative to control (0%, <50%, 50-90%, >90%)): > 90% | Effect on pellicle formation (FIG. 2A) ([3]; 3 μM, freshly inoculated culture, biofilm-inducing medium, 3 days): significant inhibition of biofilm growth | minimum concentration (MIC / MBIC) needed to prevent biofilm formation ([3]; FIG. 2B, complete inhibition of pellicle formation, mixture in equimolar amounts): about 100 nM | Biofilm-inhibition assay for B. subtilis ([3]; summary statement, concentration not given): significant inhibition of biofilm growth | Cell growth (FIG. 8) (Bacillus subtilis [4]): substantially the same as the untreated sample | yqxM and eps expression (FIG. 9A, 9B) [5]: substantially the same as the untreated sample
